A short description of data set [1]: Toxicity in mouse. The data set is classed as organism-based. As to conditions: in vivo.
For data set [2], the species on record is Mus musculus. The experiment in a line: Anticonvulsant activity in mouse assessed as inhibition of maximal electroshock-induced seizures. Format: functional. On the technique in general: In the maximal electroshock model the usual endpoint is tonic extension of the hind limbs.
Data set [3] is filed under the species Mus musculus. The experiment in a line: Protective index, ratio of TD50 for mouse to ED50 for maximal electroshock-induced mouse seizure model. Format: functional.
For data set [4], the species on record is Mus musculus. Nature of the data set: Anticonvulsant activity against maximal electroshock-induced seizures in mouse assessed as time to peak effect. The data set is classed as functional.
For data set [5], the species on record is Rattus norvegicus. The experiment in a line: Anticonvulsant activity against maximal electroshock-induced seizures in rat assessed as time to peak effect. The data set is classed as functional.
For data set [6], the species on record is Rattus norvegicus. The experiment in a line: Anticonvulsant activity in rat assessed as inhibition of maximal electroshock-induced seizures. The data set is classed as functional.
Data set [7] is described as follows: Toxicity in rat. The data set is classed as organism-based. As to conditions: in vivo.
For data set [8], the species on record is Rattus norvegicus. Nature of the data set: Protective index, ratio of TD50 for rat to ED50 for maximal electroshock-induced rat seizure model. Format: functional.

This note sets out measurements from ChEMBL document CHEMBL1152505, “Enaminones 10. Molecular modeling aspects of the 5-methylcyclohexenone derivatives” (Bioorg Med Chem, 2009).

The structures appear in SMILES notation. A value given as a limit tells only on which side of the number the result lay.

Broadly, the TD50 is the dose at which the toxic effect under study appears in half of the subjects. Lower therefore signals greater toxicity. As usually defined, the ED50 is the dose at which the effect has come halfway, by size or by number of responders.

Regarding `CC1CC(=O)C=C(Nc2ccc(I)cc2)C1` (stereo unspecified), the figures for the TD50 in data set [1] and in data set [7] were 344 mg/kg and above 500 mg/kg, respectively. For the same molecule, the ED50 in data set [2] is 77 mg/kg; in data set [6], 17.6 mg/kg. The figures for the PI in data set [3] and in data set [8] were 4.5 and above 28.3, respectively. The Time in data set [4] is 0.25 h; in data set [5] it was 2 h.

Turning to `CC1CC(=O)C=C(Nc2ccc(OC(F)(F)F)cc2)C1` (stereo unspecified), in data set [5], the Time was determined as 0.5 h. Also, the ED50 in data set [6] stood at 6.5 mg/kg. The TD50 in data set [7] was above 400 mg/kg. Also, in data set [8], the PI is listed as above 62.

With `CC1CC(=O)C=C(Nc2ccc(C(F)(F)F)cc2)C1` (stereo unspecified), the Time in data set [5] worked out at 1 h. For the same molecule, the ED50 in data set [6] turned out to be 10.3 mg/kg. The TD50 in data set [7] is above 500 mg/kg. In addition, the PI in data set [8] is listed as above 48.4.

In the case of `COc1cccc(NC2=CC(=O)CC(C)C2)c1` (stereo unspecified), the Time in data set [5] was 0.5 h. In data set [6], the ED50 was 39.4 mg/kg. In addition, the TD50 in data set [7] was above 500 mg/kg. Further, the PI in data set [8] is above 12.7.

`CC1CC(=O)C=C(Nc2ccc(Br)cc2)C1` (stereo unspecified): the Time in data set [5] worked out at 0.5 h. Further, the ED50 in data set [6] amounted to 7.6 mg/kg. This molecule came in with a TD50 in data set [7] above 500 mg/kg. The PI in data set [8] was above 65.8.

Take `CC1CC(=O)C=C(Nc2ccc([N+](=O)[O-])cc2)C1` (stereo unspecified): the Time in data set [5] amounted to 4 h. In data set [6], the ED50 was 18.4 mg/kg. The same molecule gave a TD50 in data set [7] above 500 mg/kg. Moreover, the PI in data set [8] is given as above 27.4.

In the case of `CC1CC(=O)C=C(Nc2ccc(Cl)cc2)C1` (stereo unspecified), the TD50 in data set [1] is 111 mg/kg; in data set [7] it was above 186 mg/kg. The ED50 in data set [2] came out at 16.7 mg/kg; in data set [6] it was 14.7 mg/kg. Also, the results for the PI in data set [3] and in data set [8] were 6.6 and above 83.3, respectively. Further, the Time came to 0.25 h in data set [4] and 1 h in data set [5].
